Results: ChEMBL document CHEMBL5126620, “Mapping the N-Terminal Hexokinase-I Binding Site onto Voltage-Dependent Anion Channel-1 To Block Peripheral Nerve Demyelination” (J Med Chem, 2022)
pIC50: −log10 of the molar value. One block for each compound: values may come before it. Active and inactive are the calls of the source. No cut-off for these calls is given here. Numbered stars: 1 amine (or outer) side, 2 acyl side, 3 side chain; on linkers, the order of the positions; unused ones are H or OH. Square brackets hold non-standard residues; d marks the D form. Peptide text beside a SMILES is read from it. * marks the point of attachment. X2 = CC(C)(C(=O)*)n1cc(-c2cccc(C(F)(F)F)c2)nn1; X1 = CC(=O)CCCC[C@H](N[*:1])C(=O)[*:2]; Aib = CC(C)(N)C(=O)O

Key:
[1] = Inhibition of VDAC mediated mitochondrial Ca2+ release in HEK293 cells transfected with mitoGCaMP2; format: cell-based; settings: Homo sapiens
HEK293 [2] = assay: Inhibition of VDAC in mitochondria of HEK293 cells transfected with mitoGCaMP2 assessed as calcium efflux from mitochondria by measuring decrease in mitoGCaMP2 fluorescence at 6 mM by DAPI staining confocal imaging analysis; settings: Homo sapiens, time 30.0 min
HEK293 [3] = assay: Inhibition of VDAC in mitochondria of HEK293 cells transfected with mitoGCaMP2 assessed as calcium efflux from mitochondria by measuring decrease in mitoGCaMP2 fluorescence at 33 uM by DAPI staining confocal imaging analysis; settings: Homo sapiens
HEK293 [4] = assay: Inhibition of VDAC in mitochondria of HEK293 cells transfected with mitoGCaMP2 assessed as calcium efflux by measuring mitoGCaMP2 fluorescence in cytoplasm at 33 uM by DAPI staining confocal imaging analysis; format: subcellular; settings: Homo sapiens
[5] = Metabolic stability in rat serum assessed as parent compound remaining at 66.6 uM after 24 hr incubation by LC-MS analysis relative to control; format: ADME, cell-free; settings: read-out: Stability
Mus musculus [6] = organism: Mus musculus; assay: Inhibition of demyelination in sciatic nerve explant C57BL6/J mouse model assessed as reduction in fiber damage level in serum free medium at 3 uM measured after 24 hrs by coherent anti Stokes raman scattering assay; format: functional
Mus musculus [7] = organism: Mus musculus; assay: Inhibition of demyelination in sciatic nerve explant C57BL6/J mouse model assessed as reduction in fiber damage level in serum containing medium at 3 uM measured after 24 hrs by coherent anti Stokes raman scattering assay; format: functional
Homo sapiens = organism: Homo sapiens; assay: Inhibition of VDAC (unknown origin) mediated mitochondrial Ca2+ release at 100 uM
[8] = Metabolic stability in rat serum assessed as parent compound remaining at 66.6 uM after 1 hr incubation by LC-MS analysis relative to control; format: ADME, cell-free; settings: read-out: Stability

Compound: CCCC[C@H](NC(=O)[C@H](CCC(N)=O)NC(=O)[C@@H]1CCCN1C(=O)[C@@H]1CCCN1C(=O)[C@H](CCCNC(=N)N)NC(=O)[C@H](CCCNC(=N)N)NC(=O)[C@H](CCCNC(=N)N)NC(=O)[C@H](CCC(N)=O)NC(=O)[C@H](CCCNC(=N)N)NC(=O)[C@H](CCCNC(=N)N)NC(=O)[C@H](CCCCN)NC(=O)[C@H](CCCCN)NC(=O)[C@H](CCCNC(=N)N)NC(=O)CNC(C)=O)C(=O)N[C@H](C(=O)N[C@@H](C)C(=O)N[C@@H](C)C(=O)N[C@@H](CCC(N)=O)C(=O)N[C@@H](CC(C)C)C(=O)N[C@@H](CC(C)C)C(=O)N[C@@H](C)C(=O)N[C@@H](Cc1ccc(O)cc1)C(=O)N[C@@H](Cc1ccc(O)cc1)C(=O)N[C@@H](Cc1ccccc1)C(=O)N[C@H](C(=O)N[C@@H](CCC(=O)O)C(=O)N[C@@H](CC(C)C)C(=O)N[C@@H](CCCCN)C(N)=O)[C@@H](C)O)[C@@H](C)CC
pIC50 [1]: 4.86

inhibition (HEK293 [2]): Active
inhibition (HEK293 [3]): Active
inhibition (HEK293 [4]): Active
Compound: CC/C=C\C[C@H]1C(=O)CC[C@@H]1CC(=O)OC

remaining at 24 h, 66.6 µM [5]: 65%
Compound: CC(=O)N[C@@H](C)C(=O)N[C@@H](CCC(N)=O)C(=O)N[C@@H](CC(C)C)C(=O)N[C@@H](CC(C)C)C(=O)NC(C)(C)C(=O)N[C@@H](Cc1ccc(O)cc1)C(=O)N[C@@H](Cc1ccc(O)cc1)C(=O)N[C@@H](Cc1ccccc1)C(=O)N[C@H](C(=O)N[C@@H](CCC(=O)O)C(=O)N[C@@H](CC(C)C)C(=O)N[C@@H](CCCCN)C(N)=O)[C@@H](C)O (Ac-AQLL[Aib]YYFTELK-NH2)

remaining at 24 h, 66.6 µM [5]: 75%
Compound: CC(=O)N[C@@H](C)C(=O)NC(C)(C)C(=O)N[C@@H](C)C(=O)NC(C)(C)C(=O)N[C@@H](C)C(=O)N[C@@H](CCC(N)=O)C(=O)N[C@@H](CC(C)C)C(=O)N[C@@H](CC(C)C)C(=O)NC(C)(C)C(=O)N[C@@H](Cc1ccc(O)cc1)C(=O)N[C@@H](Cc1ccc(O)cc1)C(=O)N[C@@H](Cc1ccccc1)C(=O)N[C@H](C(=O)N[C@@H](CCC(=O)O)C(=O)N[C@@H](CC(C)C)C(=O)N[C@@H](CCCCN)C(N)=O)[C@@H](C)O (Ac-A[Aib]A[Aib]AQLL[Aib]YYFTELK-NH2)

Compound: CC(=O)N[C@@H](C)C(=O)NC(C)(C)C(=O)N[C@@H](C)C(=O)NC(C)(C)C(=O)N[C@@H](C)C(=O)N[C@@H](CCC(N)=O)C(=O)N[C@@H](CC(C)C)C(=O)N[C@@H](CC(C)C)C(=O)NC(C)(C)C(=O)N[C@@H](Cc1ccc(O)cc1)C(=O)N[C@@H](Cc1ccc(O)cc1)C(=O)N[C@@H](Cc1ccccc1)C(=O)N[C@H](C(=O)N[C@@H](CCC(=O)O)C(=O)N[C@@H](CC(C)C)C(=O)N[C@@H](CCCCN)C(=O)NCC(=O)N[C@@H](CCCNC(=N)N)C(=O)N[C@@H](CCCCN)C(=O)N[C@@H](CCCCN)C(=O)N[C@@H](CCCNC(=N)N)C(=O)N[C@@H](CCCNC(=N)N)C(=O)N[C@@H](CCC(N)=O)C(=O)N[C@@H](CCCNC(=N)N)C(=O)N[C@@H](CCCNC(=N)N)C(=O)N[C@@H](CCCNC(=N)N)C(=O)N1CCC[C@H]1C(=O)N1CCC[C@H]1C(=O)N[C@@H](CCC(N)=O)C(N)=O)[C@@H](C)O (Ac-A[Aib]A[Aib]AQLL[Aib]YYFTELKGRKKRRQRRRPPQ-NH2)
inhibition (Mus musculus [6]): Active
inhibition (Mus musculus [7]): Active

inhibition (Homo sapiens): Active
inhibition (HEK293 [3]): Active
inhibition (HEK293 [4]): Active
pIC50 [1]: 4.81
Compound: CC[C@H](C)[C@H](NC(=O)[C@@H](N)CCCCC(C)=O)C(=O)N[C@@H](C)C(=O)N[C@@H](C)C(=O)N[C@@H](CCC(N)=O)C(=O)N[C@@H](CC(C)C)C(=O)N[C@@H](CC(C)C)C(=O)N[C@@H](C)C(=O)N[C@@H](Cc1ccc(O)cc1)C(=O)N[C@@H](Cc1ccc(O)cc1)C(=O)N[C@@H](Cc1ccccc1)C(=O)N[C@H](C(=O)N[C@@H](CCC(=O)O)C(=O)N[C@@H](CC(C)C)C(=O)N[C@@H](CCCCN)C(=O)NCC(=O)N[C@@H](CCCNC(=N)N)C(=O)N[C@@H](CCCCN)C(=O)N[C@@H](CCCCN)C(=O)N[C@@H](CCCNC(=N)N)C(=O)N[C@@H](CCCNC(=N)N)C(=O)N[C@@H](CCC(N)=O)C(=O)N[C@@H](CCCNC(=N)N)C(=O)N[C@@H](CCCNC(=N)N)C(=O)N[C@@H](CCCNC(=N)N)C(=O)N1CCC[C@H]1C(=O)N1CCC[C@H]1C(=O)N[C@@H](CCC(N)=O)C(N)=O)[C@@H](C)O (H-[X1]IAAQLLAYYFTELKGRKKRRQRRRPPQ-NH2)

Compound: C[C@H](NC(=O)C(C)(C)n1cc(-c2cccc(C(F)(F)F)c2)nn1)C(=O)N[C@@H](CCC(N)=O)C(=O)N[C@@H](Cc1c[nH]c2ccccc12)C(=O)N[C@@H](Cc1c[nH]c2ccccc12)C(=O)NC(C)(C)C(=O)N[C@@H](Cc1ccc(O)cc1)C(=O)N[C@@H](Cc1ccc(O)cc1)C(=O)N[C@@H](Cc1ccccc1)C(=O)N[C@H](C(=O)N[C@@H](CCC(=O)O)C(=O)N[C@@H](Cc1c[nH]c2ccccc12)C(=O)N[C@@H](CCCCN)C(=O)NCC(=O)N[C@@H](CCCNC(=N)N)C(=O)N[C@@H](CCCCN)C(=O)N[C@@H](CCCCN)C(=O)N[C@@H](CCCNC(=N)N)C(=O)N[C@@H](CCCNC(=N)N)C(=O)N[C@@H](CCC(N)=O)C(=O)N[C@@H](CCCNC(=N)N)C(=O)N[C@@H](CCCNC(=N)N)C(=O)N[C@@H](CCCNC(=N)N)C(=O)N1CCC[C@H]1C(=O)N1CCC[C@H]1C(=O)N[C@@H](CCC(N)=O)C(N)=O)[C@@H](C)O (X2-AQWW[Aib]YYFTEWKGRKKRRQRRRPPQ-NH2)
inhibition (Mus musculus [6]): Active
inhibition (Mus musculus [7]): Active

remaining at 1 h, 66.6 µM [8]: 8%
Compound: Ac-AQLLAYYFTELK-NH2

pIC50 [1]: 5.44
Compound: Ac-AQWWAYYFTEWK-NH2

Compound: Ac-AQWWAYYFTEWKGRKKRRQRRRPPQ-NH2
inhibition (Mus musculus [6]): Active
